According to ChEMBL document CHEMBL4507293 (2021):

Key:
[1] = target: Melanocortin receptor 5 (Homo sapiens) (UniProt P33032); assay: Inhibition of Melanocortin MC5 at 10 µM in the Eurofins-Panlabs radioligand binding assay (Eurofins_assay_251400); set-up: ligand concentration 0.035 nM; conditions: Compound concentration 10.0 uM
[2] = target: Peroxisome proliferator-activated receptor alpha (Homo sapiens) (UniProt Q07869); assay: PPARalpha Eurofins-Panlabs radioligand binding assay; conditions: Compound concentration 10.0 uM
Sequence of Peroxisome proliferator-activated receptor alpha (Homo sapiens) (Q07869 whole entry): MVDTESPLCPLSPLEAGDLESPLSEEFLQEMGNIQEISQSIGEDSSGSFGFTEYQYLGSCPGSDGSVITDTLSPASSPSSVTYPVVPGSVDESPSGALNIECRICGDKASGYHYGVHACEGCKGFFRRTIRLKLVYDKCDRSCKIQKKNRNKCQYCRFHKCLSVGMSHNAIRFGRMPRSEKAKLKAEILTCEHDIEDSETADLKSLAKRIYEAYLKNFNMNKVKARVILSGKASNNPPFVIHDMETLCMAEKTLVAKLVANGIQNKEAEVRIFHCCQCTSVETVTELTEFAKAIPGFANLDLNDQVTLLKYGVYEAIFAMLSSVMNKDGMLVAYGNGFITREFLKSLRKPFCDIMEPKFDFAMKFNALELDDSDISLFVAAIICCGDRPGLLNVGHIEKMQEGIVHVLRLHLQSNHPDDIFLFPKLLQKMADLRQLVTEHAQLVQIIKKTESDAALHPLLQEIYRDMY

[3] = target: Adenosine receptor A1 (Homo sapiens) (UniProt P30542); conditions: Compound concentration 10.0 uM
[4] = target: Melanocortin receptor 3 (Homo sapiens) (UniProt P41968); assay: Inhibition of Melanocortin MC3 at 10 µM in the Eurofins-Panlabs radioligand binding assay (Eurofins_assay_251300); set-up: ligand concentration 0.035 nM; conditions: Compound concentration 10.0 uM
Sequence of Melanocortin receptor 3 (Homo sapiens) (P41968 whole entry): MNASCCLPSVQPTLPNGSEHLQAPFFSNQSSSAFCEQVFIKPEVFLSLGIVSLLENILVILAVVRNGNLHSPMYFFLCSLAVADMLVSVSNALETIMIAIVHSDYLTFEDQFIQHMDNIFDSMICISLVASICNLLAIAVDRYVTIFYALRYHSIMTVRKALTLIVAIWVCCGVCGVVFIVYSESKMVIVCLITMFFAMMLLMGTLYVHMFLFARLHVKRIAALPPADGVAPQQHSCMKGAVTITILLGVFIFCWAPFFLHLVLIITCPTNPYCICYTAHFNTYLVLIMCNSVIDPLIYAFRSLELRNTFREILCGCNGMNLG

[5] = target: Sodium-dependent dopamine transporter (Homo sapiens) (UniProt Q01959); conditions: Compound concentration 10.0 uM
Sequence of Sodium-dependent dopamine transporter (Homo sapiens) (Q01959 whole entry): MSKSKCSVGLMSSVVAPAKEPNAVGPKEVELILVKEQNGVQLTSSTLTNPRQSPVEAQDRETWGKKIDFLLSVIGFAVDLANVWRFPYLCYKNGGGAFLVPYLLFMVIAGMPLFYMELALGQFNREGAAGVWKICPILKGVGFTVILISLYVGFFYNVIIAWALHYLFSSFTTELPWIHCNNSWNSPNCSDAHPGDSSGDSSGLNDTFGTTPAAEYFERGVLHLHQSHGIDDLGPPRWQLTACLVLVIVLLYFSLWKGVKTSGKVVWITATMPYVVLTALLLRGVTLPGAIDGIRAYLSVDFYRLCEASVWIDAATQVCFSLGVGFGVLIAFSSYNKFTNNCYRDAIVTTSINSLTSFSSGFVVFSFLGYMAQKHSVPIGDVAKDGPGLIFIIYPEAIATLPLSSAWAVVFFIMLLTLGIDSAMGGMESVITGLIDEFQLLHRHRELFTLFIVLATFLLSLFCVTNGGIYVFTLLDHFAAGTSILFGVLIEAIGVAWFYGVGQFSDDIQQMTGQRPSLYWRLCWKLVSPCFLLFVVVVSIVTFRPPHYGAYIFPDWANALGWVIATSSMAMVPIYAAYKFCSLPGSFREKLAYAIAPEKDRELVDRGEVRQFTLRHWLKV

[6] = target: T1, Muscarinic acetylcholine receptor M1 (Homo sapiens) (UniProt P11229); conditions: Compound concentration 10.0 uM
T1 sequence (whole entry): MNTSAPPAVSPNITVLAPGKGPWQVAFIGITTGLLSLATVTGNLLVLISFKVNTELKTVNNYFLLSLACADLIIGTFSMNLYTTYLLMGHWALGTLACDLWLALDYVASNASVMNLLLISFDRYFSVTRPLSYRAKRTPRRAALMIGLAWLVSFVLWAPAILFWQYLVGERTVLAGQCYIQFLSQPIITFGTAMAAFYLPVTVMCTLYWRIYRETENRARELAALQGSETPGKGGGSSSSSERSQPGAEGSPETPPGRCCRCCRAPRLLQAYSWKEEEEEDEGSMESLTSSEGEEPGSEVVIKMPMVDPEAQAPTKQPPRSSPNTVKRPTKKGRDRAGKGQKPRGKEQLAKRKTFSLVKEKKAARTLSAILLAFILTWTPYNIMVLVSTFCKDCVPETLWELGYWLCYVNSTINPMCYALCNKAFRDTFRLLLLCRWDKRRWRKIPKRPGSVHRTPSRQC

[7] = target: Histamine H1 receptor (Homo sapiens) (UniProt P35367); conditions: Compound concentration 10.0 uM
Sequence of Histamine H1 receptor (Homo sapiens) (P35367 whole entry): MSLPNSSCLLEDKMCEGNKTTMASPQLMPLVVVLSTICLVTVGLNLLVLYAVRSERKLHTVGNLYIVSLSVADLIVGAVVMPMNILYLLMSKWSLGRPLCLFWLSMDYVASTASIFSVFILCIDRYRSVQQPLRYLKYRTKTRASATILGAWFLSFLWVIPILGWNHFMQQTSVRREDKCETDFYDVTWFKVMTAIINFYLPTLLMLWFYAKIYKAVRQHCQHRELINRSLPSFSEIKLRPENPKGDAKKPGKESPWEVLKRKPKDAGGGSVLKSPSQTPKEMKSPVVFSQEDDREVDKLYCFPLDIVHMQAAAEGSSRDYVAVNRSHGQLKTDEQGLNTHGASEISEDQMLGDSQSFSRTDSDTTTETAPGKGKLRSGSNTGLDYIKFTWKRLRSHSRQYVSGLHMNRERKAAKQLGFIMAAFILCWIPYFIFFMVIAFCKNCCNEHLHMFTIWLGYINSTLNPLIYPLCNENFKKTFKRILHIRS

[8] = target: Peroxisome proliferator-activated receptor gamma (Homo sapiens) (UniProt P37231); assay: PPARgamma Eurofins-Panlabs radioligand binding assay; set-up: ligand concentration 5 nM, non-specific ligand with concentration 0.5 µM L-797773, incubation time 18 h, incubation temperature 15 °C; conditions: Compound concentration 10.0 uM
[9] = target: Acetylcholinesterase (Homo sapiens) (UniProt P22303); conditions: Compound concentration 10.0 uM
Sequence of Acetylcholinesterase (Homo sapiens) (P22303 whole entry): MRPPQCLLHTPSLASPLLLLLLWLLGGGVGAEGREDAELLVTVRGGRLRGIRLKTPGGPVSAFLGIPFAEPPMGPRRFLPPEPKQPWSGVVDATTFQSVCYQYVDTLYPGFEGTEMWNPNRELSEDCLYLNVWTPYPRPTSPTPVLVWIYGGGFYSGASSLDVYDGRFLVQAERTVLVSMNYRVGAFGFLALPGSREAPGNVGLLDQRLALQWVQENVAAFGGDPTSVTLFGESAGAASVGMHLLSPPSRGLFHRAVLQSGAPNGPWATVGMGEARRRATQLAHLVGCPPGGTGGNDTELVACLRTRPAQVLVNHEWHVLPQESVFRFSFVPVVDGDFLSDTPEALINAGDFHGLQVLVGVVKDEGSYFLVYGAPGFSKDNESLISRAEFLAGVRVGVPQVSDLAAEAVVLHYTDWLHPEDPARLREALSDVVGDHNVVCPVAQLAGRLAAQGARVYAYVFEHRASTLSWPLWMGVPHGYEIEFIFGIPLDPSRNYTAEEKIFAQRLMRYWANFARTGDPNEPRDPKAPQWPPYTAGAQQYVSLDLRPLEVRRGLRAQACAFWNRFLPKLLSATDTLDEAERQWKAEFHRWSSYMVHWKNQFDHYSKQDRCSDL

[10] = Inhibition of Atrial Natriuretic Factor (ANF) at 10 µM in the Eurofins-Panlabs radioligand binding assay (Eurofins_assay_211000); conditions: Cavia porcellus; Compound concentration 10 uM; Assay protocol publication PMID: 2408776; Detection method Radioligand Binding; Incubation temperature 4 °C; Incubation time 60 min; Ligand Bmax 0.013 pM/ mg protein; Ligand Kd 0.14 nM; Ligand [125I] ANF (rat); Ligand concentration 0.016 nM; Ligand specific binding 78 %; Non-specific ligand with concentration 0.1 µM ANF (rat); Reference compound ANF (rat); Source of …
[11] = target: Tyrosine 3-monooxygenase (Homo sapiens) (UniProt P07101); assay: Tyrosine Hydroxylase Eurofins-Panlabs enzyme assay; set-up: substrate with concentration; conditions: Rattus norvegicus; Compound concentration 10.0 uM
[12] = target: Histamine H4 receptor (Homo sapiens) (UniProt Q9H3N8); assay: Histamine H4 Eurofins-Panlabs radioligand binding assay; conditions: Compound concentration 10.0 uM
Sequence of Histamine H4 receptor (Homo sapiens) (Q9H3N8 whole entry): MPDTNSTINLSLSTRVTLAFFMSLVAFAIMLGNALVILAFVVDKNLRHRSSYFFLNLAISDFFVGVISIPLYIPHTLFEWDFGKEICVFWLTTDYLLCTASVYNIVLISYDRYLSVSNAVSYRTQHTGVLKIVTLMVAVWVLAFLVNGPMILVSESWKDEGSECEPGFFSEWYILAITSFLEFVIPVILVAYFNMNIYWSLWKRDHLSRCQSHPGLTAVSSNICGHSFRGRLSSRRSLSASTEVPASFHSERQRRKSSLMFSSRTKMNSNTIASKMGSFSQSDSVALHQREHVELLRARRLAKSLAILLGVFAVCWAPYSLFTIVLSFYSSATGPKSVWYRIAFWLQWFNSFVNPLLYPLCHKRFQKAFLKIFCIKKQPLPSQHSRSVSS

[13] = target: Vasoactive intestinal polypeptide receptor 1 (Homo sapiens) (UniProt P32241); assay: Inhibition of Vasoactive Intestinal Peptide VIP1 at 10 µM in the Eurofins-Panlabs radioligand binding assay (Eurofins_assay_287010); conditions: Compound concentration 10.0 uM
Sequence of Vasoactive intestinal polypeptide receptor 1 (Homo sapiens) (P32241 whole entry): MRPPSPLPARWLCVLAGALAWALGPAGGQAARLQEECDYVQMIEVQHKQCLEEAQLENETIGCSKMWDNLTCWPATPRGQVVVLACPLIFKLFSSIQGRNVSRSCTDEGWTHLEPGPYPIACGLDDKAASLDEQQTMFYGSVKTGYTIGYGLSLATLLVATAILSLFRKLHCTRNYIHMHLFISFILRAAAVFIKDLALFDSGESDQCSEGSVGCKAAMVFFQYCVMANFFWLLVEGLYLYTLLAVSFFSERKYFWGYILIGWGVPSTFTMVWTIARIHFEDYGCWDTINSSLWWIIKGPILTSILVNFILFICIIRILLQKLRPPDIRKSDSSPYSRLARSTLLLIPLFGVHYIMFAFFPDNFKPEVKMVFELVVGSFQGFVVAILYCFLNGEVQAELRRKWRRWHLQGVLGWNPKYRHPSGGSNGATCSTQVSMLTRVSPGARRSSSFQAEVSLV

[14] = species on record: Homo sapiens; assay: Glutamate, Metabotropic, mGlu5 Eurofins-Panlabs radioligand binding assay; conditions: Compound concentration 10.0 uM
[15] = target: Mu-type opioid receptor (Homo sapiens) (UniProt P35372); conditions: Compound concentration 10.0 uM
Sequence of Mu-type opioid receptor (Homo sapiens) (P35372 whole entry): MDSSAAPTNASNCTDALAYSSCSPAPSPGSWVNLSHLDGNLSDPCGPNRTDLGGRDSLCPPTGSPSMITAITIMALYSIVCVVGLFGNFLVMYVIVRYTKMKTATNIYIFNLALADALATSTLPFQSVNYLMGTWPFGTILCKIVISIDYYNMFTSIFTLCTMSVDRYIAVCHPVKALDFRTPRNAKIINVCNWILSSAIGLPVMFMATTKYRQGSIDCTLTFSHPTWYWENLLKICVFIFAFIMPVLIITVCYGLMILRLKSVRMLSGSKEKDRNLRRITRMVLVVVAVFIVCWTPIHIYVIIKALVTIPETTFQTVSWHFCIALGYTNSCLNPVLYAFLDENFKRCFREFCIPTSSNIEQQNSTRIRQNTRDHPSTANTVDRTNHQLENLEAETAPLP

[16] = target: Muscarinic acetylcholine receptor M3 (Homo sapiens) (UniProt P20309); conditions: Compound concentration 10.0 uM
[17] = target: Estrogen receptor (Homo sapiens) (UniProt P03372); conditions: Compound concentration 10.0 uM
[18] = target: B2 bradykinin receptor (Homo sapiens) (UniProt P30411); assay: Bradykinin B2 Eurofins-Panlabs radioligand binding assay; conditions: Compound concentration 10.0 uM
Sequence of B2 bradykinin receptor (Homo sapiens) (P30411 whole entry): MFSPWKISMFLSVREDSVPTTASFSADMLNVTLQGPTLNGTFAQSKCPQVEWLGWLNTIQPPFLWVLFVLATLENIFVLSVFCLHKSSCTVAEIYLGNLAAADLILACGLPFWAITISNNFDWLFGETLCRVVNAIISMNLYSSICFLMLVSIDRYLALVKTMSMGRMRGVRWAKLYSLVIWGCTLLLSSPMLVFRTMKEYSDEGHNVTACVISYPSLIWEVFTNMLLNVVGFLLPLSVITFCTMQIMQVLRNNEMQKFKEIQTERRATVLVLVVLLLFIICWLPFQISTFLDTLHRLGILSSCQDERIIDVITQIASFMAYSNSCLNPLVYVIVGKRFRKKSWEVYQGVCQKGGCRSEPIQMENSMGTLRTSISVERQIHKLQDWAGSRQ

[19] = target: 5-hydroxytryptamine receptor 3A (Homo sapiens) (UniProt P46098); assay: Inhibition of Serotonin (5-Hydroxytryptamine) 5-HT3 at 10 µM in the Eurofins-Panlabs radioligand binding assay (Eurofins_assay_271910); set-up: ligand concentration 0.69 nM; conditions: Compound concentration 10.0 uM
[20] = target: Glutamate NMDA receptor; GRIN1/GRIN2A (Homo sapiens) (UniProt Q05586+Q12879); assay: NMDA-NR1a/NR2a Eurofins-Panlabs radioligand binding assay; assay type: protein-complex assay; conditions: Compound concentration 10.0 uM
[21] = target: 5-hydroxytryptamine receptor 2B (Homo sapiens) (UniProt P41595); conditions: Compound concentration 10.0 uM
[22] = target: Substance-K receptor (Homo sapiens) (UniProt P21452); assay: Inhibition of Tachykinin NK2 at 10 µM in the Eurofins-Panlabs radioligand binding assay (Eurofins_assay_255600); set-up: ligand concentration 0.5 nM; conditions: Compound concentration 10.0 uM
[23] = species on record: Rattus norvegicus; conditions: Compound concentration 10.0 uM
[24] = target: Adrenomedullin receptor AM1; CALCRL/RAMP2 (Homo sapiens) (UniProt O60895+Q16602); assay: Adrenomedullin AM1 Eurofins-Panlabs radioligand binding assay; assay type: protein-complex assay; conditions: Compound concentration 10.0 uM
[25] = species on record: Rattus norvegicus; assay: Testosterone Eurofins-Panlabs radioligand binding assay; set-up: ligand concentration 1.5 nM; conditions: Compound concentration 10.0 uM
[26] = target: Vasopressin V1b receptor (Homo sapiens) (UniProt P47901); assay: Inhibition of Vasopressin V1B at 10 µM in the Eurofins-Panlabs radioligand binding assay (Eurofins_assay_287560); set-up: ligand concentration 1 nM; conditions: Compound concentration 10.0 uM
Sequence of Vasopressin V1b receptor (Homo sapiens) (P47901 whole entry): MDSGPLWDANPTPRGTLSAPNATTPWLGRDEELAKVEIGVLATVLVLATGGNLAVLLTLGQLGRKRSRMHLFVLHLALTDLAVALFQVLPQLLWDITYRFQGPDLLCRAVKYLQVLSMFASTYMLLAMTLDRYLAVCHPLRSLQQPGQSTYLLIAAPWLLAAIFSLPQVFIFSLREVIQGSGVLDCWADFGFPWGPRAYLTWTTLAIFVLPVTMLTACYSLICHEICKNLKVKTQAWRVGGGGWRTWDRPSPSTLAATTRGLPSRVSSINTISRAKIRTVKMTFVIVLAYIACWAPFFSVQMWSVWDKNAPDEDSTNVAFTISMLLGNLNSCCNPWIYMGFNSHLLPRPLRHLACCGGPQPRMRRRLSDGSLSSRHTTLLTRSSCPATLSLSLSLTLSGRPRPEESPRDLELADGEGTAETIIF

[27] = target: T2, Alpha-2C adrenergic receptor (Homo sapiens) (UniProt P18825); assay: Adrenergic alpha2C Eurofins-Panlabs radioligand binding assay; set-up: ligand concentration 1 nM, non-specific ligand with concentration 10 µM WB-4101, incubation time 60 min, incubation temperature 25 °C; conditions: Compound concentration 10.0 uM
T2 sequence (whole entry): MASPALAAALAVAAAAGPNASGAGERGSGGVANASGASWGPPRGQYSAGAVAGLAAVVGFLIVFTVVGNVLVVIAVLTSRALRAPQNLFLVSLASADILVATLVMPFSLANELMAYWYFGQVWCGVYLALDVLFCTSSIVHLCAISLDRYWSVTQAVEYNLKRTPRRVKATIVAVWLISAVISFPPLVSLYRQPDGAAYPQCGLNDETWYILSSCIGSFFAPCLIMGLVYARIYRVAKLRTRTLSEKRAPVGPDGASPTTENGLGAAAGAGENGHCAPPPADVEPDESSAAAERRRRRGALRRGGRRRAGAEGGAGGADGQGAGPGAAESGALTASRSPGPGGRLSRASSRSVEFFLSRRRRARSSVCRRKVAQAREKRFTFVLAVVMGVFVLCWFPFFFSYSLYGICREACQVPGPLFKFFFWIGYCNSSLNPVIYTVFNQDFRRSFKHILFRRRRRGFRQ

[28] = target: Adenosine receptor A2a (Homo sapiens) (UniProt P29274); conditions: Compound concentration 10.0 uM
[29] = target: Alpha-2A adrenergic receptor (Homo sapiens) (UniProt P08913); conditions: Compound concentration 10.0 uM

Sequence of Melanocortin receptor 5 (Homo sapiens) (P33032 whole entry): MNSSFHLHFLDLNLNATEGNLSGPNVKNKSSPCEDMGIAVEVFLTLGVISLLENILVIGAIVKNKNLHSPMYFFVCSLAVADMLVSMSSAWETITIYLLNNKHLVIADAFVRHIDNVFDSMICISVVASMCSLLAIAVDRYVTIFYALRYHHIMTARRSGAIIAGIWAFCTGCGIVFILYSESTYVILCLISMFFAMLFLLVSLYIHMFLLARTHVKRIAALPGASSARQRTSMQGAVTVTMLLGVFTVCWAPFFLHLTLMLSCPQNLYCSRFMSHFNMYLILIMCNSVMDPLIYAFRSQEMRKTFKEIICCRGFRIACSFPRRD

With `COCCOc1nc(-c2ccc(Cl)nc2)nc2c1CN(C(=O)c1ncn3ccccc13)CC2` [THPP-1] the inhibition [1] was 6%, the inhibition [2] was 4% and the inhibition [3] was 37%. The inhibition [4] was 0%, the inhibition [5] was -3% and the inhibition [6] was 6%. It also gave an inhibition [7] of 0%, an inhibition [8] of -4% and an inhibition [9] of -1%. The inhibition at 10 µM [10] was 0% (not active), the inhibition [11] was 4% and the inhibition [12] was 1%. The inhibition [13] was 8%, the inhibition [14] was 22% and the inhibition [15] was 2%. For the same molecule, the inhibition [16] was -6%, the inhibition [17] was -1% and the inhibition [18] was 13%. For the same molecule, the inhibition [19] was -8%, the inhibition [20] was -7% and the inhibition [21] was -1%. The inhibition [22] was 18%, the inhibition [23] was -9% and the inhibition [24] was -6%. The inhibition [25] was 7%, the inhibition [26] was 5% and the inhibition [27] was 3%. The inhibition [28] was 17%.
In the case of `CC(C)CC(=O)N1CCc2nc(-c3ccc(Br)cc3)nc(N(C)Cc3ccccc3)c2C1` [THPP-1-NC], the inhibition [29] was 48.4%.
